ChEMBL document CHEMBL1152855, “Regioselective synthesis of dispiro[1H-indene-2,3'-pyrrolidine-2',3''-[3H]indole]-1,2''(1''H)-diones of potential anti-tumor properties” (2009)

Columns and labels:
HOP-62 = test: Growth inhibition of human HOP62 cells at 10 uM after 48 hrs by sulforhodamine B assay; format: functional; conditions: HOP-62, 48 h, values are per cent of control
HOP-92 = test: Growth inhibition of human HOP92 cells at 10 uM after 48 hrs by sulforhodamine B assay; format: functional; conditions: HOP-92, 48 h, read-out: GI
NCI-H226 = test: Growth inhibition of human NCI-H226 cells at 10 uM after 48 hrs by sulforhodamine B assay; format: functional; conditions: NCI-H226, 48 h, values are per cent of control
NCI-H23 = test: Growth inhibition of human NCI-H23 cells at 10 uM after 48 hrs by sulforhodamine B assay; format: functional; conditions: NCI-H23, 48 h, values are per cent of control
NCI-H322M = test: Growth inhibition of human NCI-H322M cells at 10 uM after 48 hrs by sulforhodamine B assay; format: functional; conditions: values are per cent of control
NCI-H460 = test: Growth inhibition of human NCI-H460 cells at 10 uM after 48 hrs by sulforhodamine B assay; format: functional; conditions: NCI-H460, 48 h, values are per cent of control
COLO 205 = test: Growth inhibition of human COLO205 cells at 10 uM after 48 hrs by sulforhodamine B assay; format: functional; conditions: COLO 205, 48 h, values are per cent of control
HCT-116 = test: Growth inhibition of human HCT116 cells at 10 uM after 48 hrs by sulforhodamine B assay; format: functional; conditions: HCT-116, 48 h, values are per cent of control
HCT-15 = test: Growth inhibition of human HCT15 cells at 10 uM after 48 hrs by sulforhodamine B assay; format: functional; conditions: HCT-15, 48 h, values are per cent of control
HT-29 = test: Growth inhibition of human HT-29 cells at 10 uM after 48 hrs by sulforhodamine B assay; format: functional; conditions: HT-29, 48 h, values are per cent of control
KM12 = test: Growth inhibition of human KM12 cells at 10 uM after 48 hrs by sulforhodamine B assay; format: functional; conditions: KM12, 48 h, values are per cent of control
BT-549 = test: Growth inhibition of human BT549 cells at 10 uM after 48 hrs by sulforhodamine B assay; format: functional; conditions: BT-549, 48 h, values are per cent of control
[1] = Growth inhibition of human Hs 578T cells at 10 uM after 48 hrs by sulforhodamine B assay; format: functional; conditions: values are per cent of control
MDA-MB-435 = test: Growth inhibition of human MDA-MB-435 cells at 10 uM after 48 hrs by sulforhodamine B assay; format: functional; conditions: MDA-MB-435, 48 h, values are per cent of control
NCI/ADR-RES = test: Growth inhibition of human NCI/ADR-RES cells at 10 uM after 48 hrs by sulforhodamine B assay; format: functional; conditions: values are per cent of control
OVCAR-3 = test: Growth inhibition of human OVCAR-3 cells at 10 uM after 48 hrs by sulforhodamine B assay; format: functional; conditions: OVCAR-3, 48 h, values are per cent of control
OVCAR-5 = test: Growth inhibition of human OVCAR5 cells at 10 uM after 48 hrs by sulforhodamine B assay; format: functional; conditions: OVCAR-5, 48 h, values are per cent of control
SK-OV-3 = test: Growth inhibition of human SKOV3 cells at 10 uM after 48 hrs by sulforhodamine B assay; format: functional; conditions: SK-OV-3, 48 h, values are per cent of control
CCRF-CEM = test: Growth inhibition of human CCRF-CEM cells at 10 uM after 48 hrs by sulforhodamine B assay; format: functional; conditions: values are per cent of control
K562 = test: Growth inhibition of human K562 cells at 10 uM after 48 hrs by sulforhodamine B assay; format: functional; conditions: K562, 48 h, values are per cent of control
MOLT-4 = test: Growth inhibition of human MOLT4 cells at 10 uM after 48 hrs by sulforhodamine B assay; format: functional; conditions: MOLT-4, 48 h, values are per cent of control
RPMI-8226 = test: Growth inhibition of human RPMI8226 cells at 10 uM after 48 hrs by sulforhodamine B assay; format: functional; conditions: RPMI-8226, 48 h, read-out: GI
SR = test: Growth inhibition of human SR cells at 10 uM after 48 hrs by sulforhodamine B assay; format: functional; conditions: values are per cent of control
786-0 = test: Growth inhibition of human 786-0 cells at 10 uM after 48 hrs by sulforhodamine B assay; format: functional; conditions: 786-0, 48 h, values are per cent of control
SN12C = test: Growth inhibition of human SN12C cells at 10 uM after 48 hrs by sulforhodamine B assay; format: functional; conditions: values are per cent of control
Rattus norvegicus [2] = test: Antiinflammatory activity against carrageenan-induced paw edema in Wister albino rat assessed as inhibition of edema at 50 mg/kg, ip administered 1 hr prior to carrageenan challenge measured after 4 hrs relative to indomethacin; format: functional; conditions: route intraperitoneal
UO-31 = test: Growth inhibition of human UO31 cells at 10 uM after 48 hrs by sulforhodamine B assay; format: functional; conditions: UO-31, 48 h, values are per cent of control
SK-MEL-2 = test: Growth inhibition of human SK-MEL-2 cells at 10 uM after 48 hrs by sulforhodamine B assay; format: functional; conditions: SK-MEL-2, 48 h, read-out: GI
UACC-257 = test: Growth inhibition of human UACC257 cells at 10 uM after 48 hrs by sulforhodamine B assay; format: functional; conditions: UACC-257, 48 h, values are per cent of control
DU-145 = test: Growth inhibition of human DU145 cells at 10 uM after 48 hrs by sulforhodamine B assay; format: functional; conditions: DU-145, 48 h, values are per cent of control
SF-295 = test: Growth inhibition of human SF295 cells at 10 uM after 48 hrs by sulforhodamine B assay; format: functional; conditions: SF-295, 48 h, values are per cent of control
SF-539 = test: Growth inhibition of human SF539 cells at 10 uM after 48 hrs by sulforhodamine B assay; format: functional; conditions: SF-539, 48 h, values are per cent of control
SNB-19 = test: Growth inhibition of human SNB19 cells at 10 uM after 48 hrs by sulforhodamine B assay; format: functional; conditions: SNB-19, 48 h, values are per cent of control
U-251 = test: Growth inhibition of human U251 cells at 10 uM after 48 hrs by sulforhodamine B assay; format: functional; conditions: U-251, 48 h, values are per cent of control
Rattus norvegicus [3] = test: Antiinflammatory activity against carrageenan-induced paw edema in Wister albino rat assessed as inhibition of edema at 50 mg/kg, ip administered 1 hr prior to carrageenan challenge measured after 1 hr relative to control; format: functional; conditions: route intraperitoneal
Rattus norvegicus [4] = test: Antiinflammatory activity against carrageenan-induced paw edema in Wister albino rat assessed as inhibition of edema at 50 mg/kg, ip administered 1 hr prior to carrageenan challenge measured after 2 hrs relative to control; format: functional; conditions: route intraperitoneal
Rattus norvegicus [5] = test: Antiinflammatory activity against carrageenan-induced paw edema in Wister albino rat assessed as inhibition of edema at 50 mg/kg, ip administered 1 hr prior to carrageenan challenge measured after 3 hrs relative to control; format: functional; conditions: route intraperitoneal
TK-10 = test: Growth inhibition of human TK10 cells at 10 uM after 48 hrs by sulforhodamine B assay; values are per cent of control; conditions: TK-10, 48 h

Row | Compound | growth, % of control at 10 µM (HOP-62) [%] | inhibition of growth at 10 µM (HOP-92) [%] | growth, % of control at 10 µM (NCI-H226) [%] | growth, % of control at 10 µM (NCI-H23) [%] | growth, % of control at 10 µM (NCI-H322M) [%] | growth, % of control at 10 µM (NCI-H460) [%] | growth, % of control at 10 µM (COLO 205) [%] | growth, % of control at 10 µM (HCT-116) [%] | growth, % of control at 10 µM (HCT-15) [%] | growth, % of control at 10 µM (HT-29) [%] | growth, % of control at 10 µM (KM12) [%] | growth, % of control at 10 µM (BT-549) [%] | growth, % of control at 10 µM [1] [%] | growth, % of control at 10 µM (MDA-MB-435) [%] | growth, % of control at 10 µM (NCI/ADR-RES) [%] | growth, % of control at 10 µM (OVCAR-3) [%] | growth, % of control at 10 µM (OVCAR-5) [%] | growth, % of control at 10 µM (SK-OV-3) [%] | growth, % of control at 10 µM (CCRF-CEM) [%] | growth, % of control at 10 µM (K562) [%] | also measured
1 | [3H]N1C(=O)[C@@]2(c3ccccc31)N(C)C[C@@H](c1ccc(Cl)cc1)[C@@]21Cc2ccccc2C1=O | 87.5 | 50.2 | 73.7 | 75 | 104 | 94.7 | 84.8 | 54.6 | 82.5 | 73.8 | 81.2 | 121 | -4.92 | 95.1 | 64 | 78.6 | 93.2 | 91 | 74.7 | 58.5 | growth, % of control at 10 µM (MOLT-4): 57%; inhibition of growth at 10 µM (RPMI-8226): 36.6%; growth, % of control at 10 µM (SR): 167%; growth, % of control at 10 µM (786-0): 88.9%; growth, % of control at 10 µM (SN12C): 79.5%; activity relative to indomethacin (Rattus norvegicus [2]): 32%; growth, % of control at 10 µM (UO-31): 62.7%; inhibition of growth at 10 µM (SK-MEL-2): -6.14%; growth, % of control at 10 µM (UACC-257): 34.5%; growth, % of control at 10 µM (DU-145): 103%; growth, % of control at 10 µM (SF-295): 31.4%; growth, % of control at 10 µM (SF-539): 107%; growth, % of control at 10 µM (SNB-19): 89.9%; growth, % of control at 10 µM (U-251): 87.7%; inhibition in vivo at 50 mg/kg (Rattus norvegicus [3]): 27.9%; inhibition in vivo at 50 mg/kg (Rattus norvegicus [4]): 28.4%; inhibition in vivo at 50 mg/kg (Rattus norvegicus [5]): 18.9%; growth, % of control at 10 µM (TK-10): 144%
2 | [3H]C([3H])([3H])N1C(=O)[C@@]2(c3ccccc31)N(C)C[C@@H](c1ccc(OC)cc1)[C@@]21Cc2ccccc2C1=O | 88.2 | 47.1 | 78.7 | 84.5 | 124 | 95.4 | 104 | 59.8 | 89.1 | 66.9 | 98.2 | 101 | -4.27 | 101 | 96 | 92.5 | 97.7 | 99.4 | 72.1 | 85.2 | growth, % of control at 10 µM (MOLT-4): 107%; inhibition of growth at 10 µM (RPMI-8226): 17.7%; growth, % of control at 10 µM (SR): 125%; growth, % of control at 10 µM (786-0): 88%; growth, % of control at 10 µM (SN12C): 89.1%; activity relative to indomethacin (Rattus norvegicus [2]): 8%; growth, % of control at 10 µM (UO-31): 75.5%; inhibition of growth at 10 µM (SK-MEL-2): -6.92%; growth, % of control at 10 µM (UACC-257): 88.7%; growth, % of control at 10 µM (DU-145): 128%; growth, % of control at 10 µM (SF-295): 89.1%; growth, % of control at 10 µM (SF-539): 99.9%; growth, % of control at 10 µM (SNB-19): 94.1%; growth, % of control at 10 µM (U-251): 88.4%; inhibition in vivo at 50 mg/kg (Rattus norvegicus [3]): 46.9%; inhibition in vivo at 50 mg/kg (Rattus norvegicus [4]): 20.2%; inhibition in vivo at 50 mg/kg (Rattus norvegicus [5]): 3.3%; growth, % of control at 10 µM (TK-10): 165%
